Assay results reported in patent US20080119513A1, “Sulfonamide Derivative Selectively Inhibiting Mmp-13” (priority 2004, published 2008).

Experiments:
Rat osteoarthritis model = experiment: Inhibition of disease progression in the rat osteoarthritis model; type: in vivo; settings: female SD rats, medial meniscectomy and collateral ligament transection; 10 mg/kg orally twice daily for 6 weeks
Experimental: Rat osteoarthritis model was prepared according to the procedure reported by Meacock et al. (J. Exp. Path. 71, 279-293, 1990), by medial meniscectomy and collateral ligament transection on the right knee of 12 weeks old female SD rats (Charles River Japan). 0.5% methylcellulose or compounds (II-3) or (III-11) (10 mg/kg) were orally administered twice daily from the following day of the surgery for 6 weeks.
On the next day of final administration, tibial plateaus were removed. The surfaces of the tibial plateau were stained with India ink (Kuretake), and then photographed using a digital camera (Nikon). The progressive level of OA lesion was scored using a photographic image thereof.

MMP-9 = MMP-9 (Homo sapiens, UniProt P14780); experiment: Assay for inhibitory activities on MMPs (fluorogenic peptide substrate), MMP-9; type: biochemical
Sequence of MMP-9 (P14780 107-707): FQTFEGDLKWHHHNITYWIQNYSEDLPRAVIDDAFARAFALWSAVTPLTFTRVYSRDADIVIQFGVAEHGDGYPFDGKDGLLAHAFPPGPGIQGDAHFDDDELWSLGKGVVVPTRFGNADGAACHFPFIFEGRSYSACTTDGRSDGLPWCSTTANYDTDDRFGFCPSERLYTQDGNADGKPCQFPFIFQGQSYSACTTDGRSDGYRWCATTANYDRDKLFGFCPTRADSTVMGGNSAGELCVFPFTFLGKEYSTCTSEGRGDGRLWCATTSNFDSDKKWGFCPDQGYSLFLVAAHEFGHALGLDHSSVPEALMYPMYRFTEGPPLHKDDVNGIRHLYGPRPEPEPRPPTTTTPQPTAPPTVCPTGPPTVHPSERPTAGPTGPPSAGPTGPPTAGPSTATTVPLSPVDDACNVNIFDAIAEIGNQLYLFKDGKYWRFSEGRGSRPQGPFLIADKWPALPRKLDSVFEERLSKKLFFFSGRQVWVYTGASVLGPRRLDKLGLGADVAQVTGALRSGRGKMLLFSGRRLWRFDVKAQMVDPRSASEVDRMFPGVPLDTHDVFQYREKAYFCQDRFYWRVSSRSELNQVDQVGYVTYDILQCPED
In short: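 ProMMP-9 purified from TPA-stimulated HT1080 cells and activated with TPCK-trypsin, assayed with fluorogenic MOCAc-Pro-Leu-Gly-Leu-A2Pr(DNP)-Ala-Arg-NH2. Percent inhibition from fluorescence of reactions with and without enzyme and inhibitor; IC50 as concentration giving 50% inhibition.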

MMP-2 = molecular target: T1, MMP-2 (Homo sapiens, UniProt P08253); experiment: Assay for inhibitory activities on MMPs (fluorogenic peptide substrate), MMP-2; type: biochemical
T1 sequence (P08253 110-660): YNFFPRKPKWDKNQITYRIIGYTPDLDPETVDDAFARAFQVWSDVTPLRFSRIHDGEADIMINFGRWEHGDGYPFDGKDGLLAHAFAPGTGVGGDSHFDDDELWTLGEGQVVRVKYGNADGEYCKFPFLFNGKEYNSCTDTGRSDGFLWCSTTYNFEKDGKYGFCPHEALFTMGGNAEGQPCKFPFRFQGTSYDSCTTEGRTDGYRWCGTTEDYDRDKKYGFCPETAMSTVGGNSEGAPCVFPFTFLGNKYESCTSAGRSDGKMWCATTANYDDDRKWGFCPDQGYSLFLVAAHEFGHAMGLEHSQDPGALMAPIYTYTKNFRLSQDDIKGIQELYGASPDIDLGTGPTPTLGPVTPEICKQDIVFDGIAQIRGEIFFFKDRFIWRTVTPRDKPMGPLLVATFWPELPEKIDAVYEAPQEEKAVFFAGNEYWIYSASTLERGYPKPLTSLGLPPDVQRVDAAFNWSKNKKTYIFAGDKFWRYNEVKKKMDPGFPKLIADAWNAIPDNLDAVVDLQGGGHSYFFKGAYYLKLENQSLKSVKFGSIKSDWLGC
In short: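 Human MMP-2 activity measured with fluorogenic MOCAc-Pro-Leu-Gly-Leu-A2Pr(DNP)-Ala-Arg-NH2 substrate. Percent inhibition derived from fluorescence with and without enzyme and inhibitor, corrected for substrate and inhibitor background. IC50 taken as concentration giving 50% inhibition.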

MMP-8 = molecular target: T2, MMP-8 (Homo sapiens, UniProt P22894); experiment: Assay for inhibitory activities on MMPs (fluorogenic peptide substrate), MMP-8; type: biochemical
T2 construct: In regard to MMP-8, catalytic domain (^99Phe˜^262Gly) was amplified with PCR; His-tag; enterokinase digestion-site
T2 sequence (P22894 99-262): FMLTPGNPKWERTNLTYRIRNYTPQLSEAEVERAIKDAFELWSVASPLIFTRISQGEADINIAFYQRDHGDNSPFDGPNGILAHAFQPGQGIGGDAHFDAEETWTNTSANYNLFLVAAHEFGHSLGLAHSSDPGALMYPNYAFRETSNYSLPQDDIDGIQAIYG
In short: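 Human MMP-8 catalytic domain (Phe99–Gly262), His-tagged, E. coli-expressed, urea-solubilised, refolded. Fluorogenic substrate MOCAc-Pro-Leu-Gly-Leu-A2Pr(DNP)-Ala-Arg-NH2; fluorescence read with enzyme/inhibitor, substrate/inhibitor, enzyme-only and substrate-only wells. % inhibition = {1-(A−B)/(C−D)}×100; IC50 is concentration giving 50% inhibition.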

MMP-12 = molecular target: T3, MMP-12 (Homo sapiens, UniProt P39900); experiment: Assay for inhibitory activities on MMPs (fluorogenic peptide substrate), MMP-12; type: biochemical
T3 construct: In regard to MMP-12, catalytic domain (^100Phe˜^263Gly) was amplified with RT-PCR; His-tag; enterokinase digestion-site
T3 sequence (P39900 100-263): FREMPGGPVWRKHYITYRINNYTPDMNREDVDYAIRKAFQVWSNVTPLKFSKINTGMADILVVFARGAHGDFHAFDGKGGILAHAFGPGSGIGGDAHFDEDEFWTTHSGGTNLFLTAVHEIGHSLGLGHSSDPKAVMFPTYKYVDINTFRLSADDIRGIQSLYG
In short: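 Refolded His-tagged human MMP-12 catalytic domain (Phe100–Gly263) expressed in E. coli, assayed with fluorogenic substrate MOCAc-Pro-Leu-Gly-Leu-A2Pr(DNP)-Ala-Arg-NH2. Percent inhibition calculated from fluorescence with and without enzyme and inhibitor, corrected for inhibitor-only and substrate-only blanks; IC50 is concentration giving 50% inhibition.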

MMP-13 = molecular target: T4, MMP-13 (Homo sapiens, UniProt P45452); experiment: Assay for inhibitory activities on MMPs (fluorogenic peptide substrate), MMP-13; type: biochemical
T4 construct: catalytic domain (^104Tyr˜^267Gly) was amplified with RT-PCR; His-tag; enterokinase digestion-site
In short: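 Catalytic domain cloned from IL-1/TNF-stimulated SW1353 cells, His-tagged and expressed in E. coli, then refolded from urea. Activity read by fluorescence on the MOCAc peptide substrate. IC50 taken from % inhibition = {1-(A-B)/(C-D)}×100, with blanks lacking enzyme and/or inhibitor.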

O=C(O)[C@@H](Cc1ccccc1)NS(=O)(=O)c1ccc(-c2ccc(C#Cc3ccc4ccccc4c3)cc2)cc1 [III-11]
inhibitory activities (progressive level of OA lesion, scored) (Rat osteoarthritis model): 77.2%
IC50 (MMP-9): > 10000 nM
IC50 (MMP-2): 163 nM
IC50 (MMP-8): 128 nM
IC50 (MMP-12): 2000 nM

CC(C)C[C@@H](NS(=O)(=O)c1ccc(-c2ccc(NC(=O)c3ccc4ccccc4c3)cc2)cc1)C(=O)O [VI-41]
IC50 (MMP-9): > 10000 nM
IC50 (MMP-2): > 10000 nM
IC50 (MMP-8): > 10000 nM
IC50 (MMP-12): > 10000 nM
IC50 (MMP-13): 178 nM

COc1ccc(C(=O)Nc2ccc(-c3ccc(S(=O)(=O)N[C@@H](CCSC)C(=O)O)cc3)cc2)cc1OC [VI-35]
IC50 (MMP-9): > 10000 nM
IC50 (MMP-2): 2220 nM
IC50 (MMP-8): 215 nM
IC50 (MMP-12): 232 nM
IC50 (MMP-13): 68.7 nM

COc1ccc2cc(C#Cc3ccc(-c4ccc(S(=O)(=O)N[C@H](CO)C(=O)O)cc4)cc3)ccc2c1 [III-44]
IC50 (MMP-9): > 10000 nM
IC50 (MMP-2): 5010 nM
IC50 (MMP-8): > 10000 nM
IC50 (MMP-12): 5290 nM
IC50 (MMP-13): 3.49 nM

COc1ccc2cc(C#Cc3ccc(-c4ccc(S(=O)(=O)N[C@H](CSC)C(=O)O)cc4)cc3)ccc2c1 [III-49]
IC50 (MMP-9): > 10000 nM
IC50 (MMP-2): > 10000 nM
IC50 (MMP-8): 109 nM
IC50 (MMP-12): 118 nM
IC50 (MMP-13): 50.8 nM

CSCC[C@H](NS(=O)(=O)c1ccc(-c2ccc(C#Cc3ccc4ccccc4c3)cc2)cc1)C(=O)O [III-10]
IC50 (MMP-9): > 10000 nM
IC50 (MMP-2): 374 nM
IC50 (MMP-8): 25.9 nM
IC50 (MMP-12): 29.7 nM
IC50 (MMP-13): 2.86 nM

C[C@@H](NS(=O)(=O)c1ccc(-c2ccc(NC(=O)c3ccc4ccccc4c3)cc2)cc1)C(=O)O [VI-37]
IC50 (MMP-9): > 10000 nM
IC50 (MMP-2): 726 nM
IC50 (MMP-8): > 10000 nM
IC50 (MMP-12): > 10000 nM
IC50 (MMP-13): 38.1 nM

COc1ccc2cc(C#Cc3ccc(-c4ccc(S(=O)(=O)N[C@H](CC(C)C)C(=O)O)cc4)cc3)ccc2c1 [III-22]
IC50 (MMP-9): > 10000 nM
IC50 (MMP-2): > 10000 nM
IC50 (MMP-8): 5710 nM
IC50 (MMP-12): 9680 nM
IC50 (MMP-13): 55.7 nM

C[C@H](NS(=O)(=O)c1ccc(-c2ccc(C#Cc3ccc4ccccc4c3)cc2)cc1)C(=O)O [III-3]
IC50 (MMP-9): > 10000 nM
IC50 (MMP-2): > 10000 nM
IC50 (MMP-8): 56.3 nM
IC50 (MMP-12): 70.9 nM
IC50 (MMP-13): 7.86 nM

CC(C)C[C@H](NS(=O)(=O)c1ccc(-c2ccc(C#Cc3ccc4ccccc4c3)cc2)cc1)C(=O)O [III-7]
IC50 (MMP-9): > 10000 nM
IC50 (MMP-2): 327 nM
IC50 (MMP-8): 13.1 nM
IC50 (MMP-12): 20.2 nM
IC50 (MMP-13): 4.32 nM

COc1ccc(C(=O)Nc2ccc(-c3ccc(S(=O)(=O)N[C@H](C)C(=O)O)cc3)cc2)cc1 [VI-15]
IC50 (MMP-9): > 10000 nM
IC50 (MMP-2): 222 nM
IC50 (MMP-8): > 10000 nM
IC50 (MMP-12): 801 nM
IC50 (MMP-13): 55.5 nM

COc1cccc(C(=O)Nc2ccc(-c3ccc(S(=O)(=O)N[C@H](Cc4ccccc4)C(=O)O)cc3)cc2)c1 [VI-5]
IC50 (MMP-9): > 10000 nM
IC50 (MMP-2): 660 nM
IC50 (MMP-8): 623 nM
IC50 (MMP-12): 1230 nM
IC50 (MMP-13): 50.1 nM

CCC(C)[C@H](NS(=O)(=O)c1ccc(-c2ccc(NC(=O)c3ccc4ccccc4c3)cc2)cc1)C(=O)O (some centres unmarked) [VI-43]
IC50 (MMP-9): > 10000 nM
IC50 (MMP-2): 243 nM
IC50 (MMP-8): 63.2 nM
IC50 (MMP-12): 66.9 nM
IC50 (MMP-13): 13.7 nM
